Structures are written as SMILES.

This is an account of results in US7645784B2, “Benzimidazole derivatives” (AstraZeneca AB, priority 2003, dated 2010).

The experiment has as its target T1, hVR1 (Homo sapiens, UniProt Q8NER1).
T1 construct: expressed in transfected cells
In words: hVR1 FLIPR (Fluorometric Image Plate Reader) screening assay, IC50 determination. The conditions noted are these: CHO cells stably expressing hVR1. Type of experiment: cell-based. As for the experimental part:
1. hVR1 FLIPR (Fluorometric Image Plate Reader) screening assay
Transfected CHO cells, stably expessing hVR1 (15,000 cells/well) are seeded in 50 μL media in a black clear bottom 384 plate (Greiner) and grown in a humidified incubator (37° C., 2% CO2), 24-30 hours prior to experiment.
Subsequently, the media is removed from the cell plate by inversion and 2 μM Fluo-4 is added using a multidrop (Labsystems). Following the 40 min dye incubation in the dark at 37° C. and 2% CO2, the extracellular dye present is washed away using an EMBLA (Scatron), leaving the cells in 40 μL of assay buffer (1×HBSS, 10 mM D-Glucose, 1 mM CaCl2,10 mM HEPES, 10×7.5% NaHCO3 and 2.5 mM Probenecid).
FLIPR assay—IC50 determination protocol
For IC50 determinations the fluorescence is read using FLIPR filter 1 (em […]). A cellular baseline recording is taken for 30 seconds, followed by a 20 μL addition of 10, titrated half-log concentrations of the test compound, yielding cellular concentration ranging from 3 μM to 0.1 nM. Data is collected every 2 seconds for a further 5 min prior to the addition of a VR1 agonist solution: either 50 nM solution of capsaicin or MES (2-[N-morpholino]ethanesulfonic acid) buffer (pH 5.2), by the FLIPR pipettor. The FLIPR continues to collect data for a further 4 min. Compounds having antagonistic properties against the hVR1 will inhibit the increase in intracellular calcium in response to the capsaicin addition. This consequently leading to a reduction in fluorescence signal and providing a reduced fluorescence reading, compared with no compound, buffer controls. Data is exported by the FLIPR program as a sum of fluorescence calculated under the curve upon the addition of capsaicin. Maximum inhibition, Hill slope and IC50 data for each compound are generated.

T1 sequence (Q8NER1 whole entry): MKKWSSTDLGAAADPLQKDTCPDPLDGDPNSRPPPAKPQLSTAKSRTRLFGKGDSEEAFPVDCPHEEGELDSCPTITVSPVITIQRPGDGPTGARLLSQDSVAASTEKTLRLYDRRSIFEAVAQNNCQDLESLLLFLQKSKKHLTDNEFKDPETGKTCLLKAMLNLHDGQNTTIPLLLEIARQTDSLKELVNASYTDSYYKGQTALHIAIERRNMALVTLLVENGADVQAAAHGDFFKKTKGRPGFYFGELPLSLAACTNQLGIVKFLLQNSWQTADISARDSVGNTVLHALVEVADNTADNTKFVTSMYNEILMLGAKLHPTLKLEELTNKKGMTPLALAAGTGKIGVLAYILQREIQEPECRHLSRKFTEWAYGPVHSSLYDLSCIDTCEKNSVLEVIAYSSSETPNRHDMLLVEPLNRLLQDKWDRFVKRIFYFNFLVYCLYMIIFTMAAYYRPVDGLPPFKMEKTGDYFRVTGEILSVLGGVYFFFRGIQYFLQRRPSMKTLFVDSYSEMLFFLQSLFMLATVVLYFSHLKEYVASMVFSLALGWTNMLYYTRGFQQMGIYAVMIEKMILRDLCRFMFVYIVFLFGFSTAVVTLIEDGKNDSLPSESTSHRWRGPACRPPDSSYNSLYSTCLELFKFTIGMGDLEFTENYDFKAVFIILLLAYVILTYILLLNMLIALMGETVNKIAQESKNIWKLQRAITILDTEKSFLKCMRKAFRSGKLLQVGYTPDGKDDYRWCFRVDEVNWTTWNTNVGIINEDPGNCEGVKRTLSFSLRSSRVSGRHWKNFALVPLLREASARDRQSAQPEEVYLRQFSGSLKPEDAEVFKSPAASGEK

Take `O=C(Cn1cnc2cccc([N+](=O)[O-])c21)Nc1cc(F)cc(F)c1` [Example 7, N-(3,5-Difluorophenyl)-2-(7-nitro-1H-benzimidazol-1-yl)acetamide]: the IC50 came out at 70 nM (agonist H+/MES buffer (pH 5.2)) and 50 nM (agonist capsaicin).
The like results for `COC(=O)c1cccc2ncn(CC(=O)Nc3cc(OC)cc(OC)c3)c12` [Example 67, Methyl 1-{2-[(3,5-dimethoxyphenyl)amino]-2-oxoethyl}-1H-benzimidazole-7-carboxylate] were, in that order, 140 nM and 160 nM.
